# Assay results as given in patent US20250368666A1, “INDAZOLE COMPOUNDS” (TYRA BIOSCIENCES, INC., priority 2022, published 2025).
# Tests used:
# FGFR3 = molecular target: T1, FGFR3 (Homo sapiens, UniProt P22607); test: Kinase binding assay (kinase-tagged T7 phage, affinity beads, qPCR), Kd; settings: read-out: FGFR3 (Kd nM)
# T1 construct: made in house; host or cells: E. coli (BL21-derived), T7 phage
# Summary of the method: (§1)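 First, phage lysates carrying tagged kinase are made in E. coli at 32° C. Next, they are combined with blocked biotin-ligand streptavidin beads and compound at 0.9% final DMSO. Finally, eluted kinase is measured by qPCR and Kd is fitted with the Hill equation.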
# FGFR1 = molecular target: T2, FGFR1 (Homo sapiens, UniProt P11362); test: as above; settings: read-out: FGFR1 (Kd nM)
# T2 construct: made in house; host or cells: E. coli (BL21-derived), T7 phage
# T2 sequence (P11362 22-822): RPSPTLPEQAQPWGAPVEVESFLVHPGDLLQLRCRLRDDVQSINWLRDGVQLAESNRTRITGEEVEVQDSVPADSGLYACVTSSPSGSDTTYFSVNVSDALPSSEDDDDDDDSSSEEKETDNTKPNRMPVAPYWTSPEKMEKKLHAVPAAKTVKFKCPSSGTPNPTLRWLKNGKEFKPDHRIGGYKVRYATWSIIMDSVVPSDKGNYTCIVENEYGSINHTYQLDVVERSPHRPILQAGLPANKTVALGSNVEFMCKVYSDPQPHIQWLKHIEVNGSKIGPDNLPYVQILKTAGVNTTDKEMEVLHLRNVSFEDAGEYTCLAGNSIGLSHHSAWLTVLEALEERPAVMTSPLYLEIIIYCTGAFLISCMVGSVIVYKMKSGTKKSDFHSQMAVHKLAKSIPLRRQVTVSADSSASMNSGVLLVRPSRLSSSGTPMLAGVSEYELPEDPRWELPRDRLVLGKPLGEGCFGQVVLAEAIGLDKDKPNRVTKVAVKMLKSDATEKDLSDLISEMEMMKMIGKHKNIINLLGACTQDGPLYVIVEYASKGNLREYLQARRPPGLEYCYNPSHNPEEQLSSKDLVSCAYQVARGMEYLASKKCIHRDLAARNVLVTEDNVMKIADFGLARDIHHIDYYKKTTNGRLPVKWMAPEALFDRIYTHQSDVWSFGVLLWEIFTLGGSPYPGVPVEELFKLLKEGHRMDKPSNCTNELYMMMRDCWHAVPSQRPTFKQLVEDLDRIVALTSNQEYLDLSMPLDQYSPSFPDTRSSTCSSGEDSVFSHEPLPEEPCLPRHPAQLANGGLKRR
# Summary of the method: as §1
# FGFR3 (V555M) = molecular target: T3, FGFR3 (V555M) (Homo sapiens, UniProt P22607, V555M); test: as above; settings: V555M mutant; read-out: FGFR3 (V555M) (Kd nM)
# T3 construct: made in house; host or cells: E. coli (BL21-derived), T7 phage
# T3 sequence (P22607 23-806 V555M): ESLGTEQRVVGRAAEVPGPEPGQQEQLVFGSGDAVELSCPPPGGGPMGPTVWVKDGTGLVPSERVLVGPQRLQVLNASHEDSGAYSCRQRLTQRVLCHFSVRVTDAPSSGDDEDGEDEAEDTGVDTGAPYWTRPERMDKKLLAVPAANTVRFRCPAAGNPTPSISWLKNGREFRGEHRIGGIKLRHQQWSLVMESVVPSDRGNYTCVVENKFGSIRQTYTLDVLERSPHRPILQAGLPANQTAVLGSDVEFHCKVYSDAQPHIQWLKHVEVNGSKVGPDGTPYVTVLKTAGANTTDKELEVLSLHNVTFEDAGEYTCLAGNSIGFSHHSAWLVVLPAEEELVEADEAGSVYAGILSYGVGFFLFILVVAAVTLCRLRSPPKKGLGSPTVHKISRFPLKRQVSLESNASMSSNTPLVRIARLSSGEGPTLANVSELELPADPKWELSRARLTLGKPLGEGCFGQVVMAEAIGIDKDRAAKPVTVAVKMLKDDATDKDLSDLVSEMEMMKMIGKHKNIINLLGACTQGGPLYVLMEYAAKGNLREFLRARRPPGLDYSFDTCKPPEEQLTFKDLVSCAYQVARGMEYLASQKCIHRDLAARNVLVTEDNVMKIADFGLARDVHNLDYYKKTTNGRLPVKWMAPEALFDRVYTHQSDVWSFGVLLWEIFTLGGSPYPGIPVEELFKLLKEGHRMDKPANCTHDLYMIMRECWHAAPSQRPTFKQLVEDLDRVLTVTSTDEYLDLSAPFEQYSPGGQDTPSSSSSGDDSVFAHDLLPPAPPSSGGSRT
# Summary of the method: as §1
# FGFR2 = molecular target: T4, FGFR2 (Homo sapiens, UniProt P21802); test: as above; settings: read-out: FGFR2 (Kd nM)
# T4 construct: made in house; host or cells: E. coli (BL21-derived), T7 phage
# T4 sequence (P21802 22-821): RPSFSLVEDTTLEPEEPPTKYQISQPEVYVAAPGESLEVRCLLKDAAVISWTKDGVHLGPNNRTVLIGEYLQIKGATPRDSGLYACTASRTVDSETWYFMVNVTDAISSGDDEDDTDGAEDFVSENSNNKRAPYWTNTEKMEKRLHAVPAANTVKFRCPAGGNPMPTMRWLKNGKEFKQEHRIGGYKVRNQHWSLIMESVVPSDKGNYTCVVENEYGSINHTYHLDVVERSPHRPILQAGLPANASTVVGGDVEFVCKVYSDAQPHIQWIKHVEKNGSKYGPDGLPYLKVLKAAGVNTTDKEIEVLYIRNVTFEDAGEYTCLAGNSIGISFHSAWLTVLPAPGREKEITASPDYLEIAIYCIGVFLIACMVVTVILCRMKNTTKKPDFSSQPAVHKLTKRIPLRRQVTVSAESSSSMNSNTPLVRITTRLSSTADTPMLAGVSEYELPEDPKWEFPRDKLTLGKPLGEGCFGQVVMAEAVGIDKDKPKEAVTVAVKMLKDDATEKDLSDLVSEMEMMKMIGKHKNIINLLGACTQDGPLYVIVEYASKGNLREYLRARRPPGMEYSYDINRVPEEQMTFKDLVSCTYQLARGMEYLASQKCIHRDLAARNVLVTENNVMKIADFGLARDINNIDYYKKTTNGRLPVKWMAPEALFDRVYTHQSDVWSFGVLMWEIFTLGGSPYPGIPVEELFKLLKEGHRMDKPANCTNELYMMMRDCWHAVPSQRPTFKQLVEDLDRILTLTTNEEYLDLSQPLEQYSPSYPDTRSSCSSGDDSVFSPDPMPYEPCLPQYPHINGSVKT
# Summary of the method: as §1
# FGFR4 = molecular target: T5, FGFR4 (Homo sapiens, UniProt P22455); test: as above; settings: read-out: FGFR4 (Kd nM)
# T5 construct: made in house; host or cells: E. coli (BL21-derived), T7 phage
# T5 sequence (P22455 22-802): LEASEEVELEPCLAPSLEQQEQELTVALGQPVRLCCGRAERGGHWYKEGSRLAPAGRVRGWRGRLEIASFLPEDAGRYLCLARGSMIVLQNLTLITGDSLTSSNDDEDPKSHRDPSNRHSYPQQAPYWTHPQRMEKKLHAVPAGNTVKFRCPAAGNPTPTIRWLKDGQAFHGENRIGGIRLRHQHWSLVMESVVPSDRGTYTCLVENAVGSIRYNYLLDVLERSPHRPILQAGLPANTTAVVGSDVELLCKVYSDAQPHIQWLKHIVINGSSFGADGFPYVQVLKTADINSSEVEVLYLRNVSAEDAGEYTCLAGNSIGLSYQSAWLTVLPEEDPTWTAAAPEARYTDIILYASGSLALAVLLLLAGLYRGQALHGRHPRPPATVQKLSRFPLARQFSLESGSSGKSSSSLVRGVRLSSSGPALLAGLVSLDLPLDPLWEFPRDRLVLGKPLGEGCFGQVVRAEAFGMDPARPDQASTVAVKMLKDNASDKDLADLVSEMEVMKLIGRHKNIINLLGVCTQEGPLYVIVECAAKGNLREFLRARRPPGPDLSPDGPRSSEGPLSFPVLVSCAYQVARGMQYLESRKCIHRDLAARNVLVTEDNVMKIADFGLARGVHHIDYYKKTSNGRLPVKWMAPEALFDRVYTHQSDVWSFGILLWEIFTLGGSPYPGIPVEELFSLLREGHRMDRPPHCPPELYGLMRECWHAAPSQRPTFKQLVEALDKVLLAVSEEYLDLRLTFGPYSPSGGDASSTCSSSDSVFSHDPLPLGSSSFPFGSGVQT
# Summary of the method: as §1
# [1] = tested on: KATO-III cell line (FGFR2 amplification); test: Cancer cell line cell viability assay (Cell Titer-Glo), 72 hr; assay type: cell-based; settings: Homo sapiens, KATO III
# Summary of the method: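 Luminescent ATP read-out (Cell Titer-Glo 2.0) after compound exposure, normalised to DMSO-only wells. Dosing: 9 concentrations, 4-fold steps, top 3 μM, triplicates. IC50 derived by log(inhibitor) vs. response 4-parameter fit.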
# [2] = tested on: RT112/84 cell line (FGFR3-fusion); test: as above; assay type: cell-based; settings: Homo sapiens, RT112/84, RT112/84 cell line (FGFR3-fusion)
# Summary of the method: (§2)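 Cells were seeded at 5,000–20,000 per well, then exposed to a 9-point, 4-fold dilution series from 3 μM top concentration in triplicate at 37° C. Exposure was 120 h for MDA-MB-453 and HuH7 and 72 h for KG-1 and RT112/84. Viability was read as ATP by Cell Titer-Glo 2.0, expressed as % of DMSO control, and fitted by 4-parameter IC50.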
# [3] = tested on: KG-1 cell line (FGFR 1-fusion); test: as above; assay type: cell-based; settings: Homo sapiens, KG-1, KG-1 cell line (FGFR1-fusion)
# Summary of the method: as §2
# [4] = tested on: MDA-MB-453 cell line (FGFR4-Y367C); test: Cancer cell line cell viability assay (Cell Titer-Glo), 120 hr; assay type: cell-based; settings: Homo sapiens
# Summary of the method: as §2
# [5] = tested on: HuH7 cell line (FGF19 amplification); test: as above; assay type: cell-based; settings: Homo sapiens, Huh-7
# Summary of the method: as §2
# T1 sequence (P22607 23-806): as the sequence (P22607 23-806 V555M) above, with M533V counted along it
Kd (FGFR3),Kd (FGFR1),Kd (FGFR3 (V555M)),Kd (FGFR2),Kd (FGFR4),IC50 [1],IC50 [2],IC50 [3],IC50 [4],IC50 [5],Structure (SMILES)
1 to 50 nM,1 to 50 nM,1 to 50 nM,1 to 50 nM,1 to 50 nM,50 to 200 nM,0.1 to 50 nM,50 to 200 nM,0.1 to 50 nM,0.1 to 50 nM,"C[C@@H](Oc1ccc2[nH]nc(-c3cnc(N4CC(C)(CS(C)(=O)=O)C4)c(F)c3)c2c1)c1c(Cl)cncc1Cl [Example 199, (R)-5-(1-(3,5-dichloropyridin-4-yl)ethoxy)-3-(5-fluoro-6-(3-methyl-3-((methyl-sulfonyl)meth-yl)azetidin-1-yl)pyridin-3-yl)-1H-indazole]"
1 to 50 nM,1 to 50 nM,1 to 50 nM,1 to 50 nM,1 to 50 nM,0.1 to 50 nM,0.1 to 50 nM,50 to 200 nM,50 to 200 nM,0.1 to 50 nM,"C[C@@H](Oc1ccc2[nH]nc(-c3ccc(N4C[C@@H](CS(C)(=O)=O)[C@@H]4C)nc3)c2c1)c1c(Cl)cncc1Cl [Example 203, 5-((R)-1-(3,5-dichloropyridin-4-yl)ethoxy)-3-(6-((2S,3R)-2-methyl-3-((methyl-sulfonyl)meth-yl)azetidin-1-yl)pyridin-3-yl)-1H-indazole]"
1 to 50 nM,1 to 50 nM,1 to 50 nM,1 to 50 nM,1 to 50 nM,0.1 to 50 nM,0.1 to 50 nM,50 to 200 nM,50 to 200 nM,0.1 to 50 nM,"C[C@@H]1[C@@H](CS(C)(=O)=O)CN1c1ccc(-c2n[nH]c3ccc(O[C@H](C)c4c(Cl)cncc4Cl)cc23)cn1 [Example 204, 5-((R)-1-(3,5-dichloropyridin-4-yl)ethoxy)-3-(6-((2R,3S)-2-methyl-3-((methyl-sulfonyl)meth-yl)azetidin-1-yl)pyridin-3-yl)-1H-indazole]"

# Continued, compound first:
Structure (SMILES),Kd (FGFR3),Kd (FGFR1),Kd (FGFR3 (V555M)),Kd (FGFR2),Kd (FGFR4),IC50 [1],IC50 [2],IC50 [3],IC50 [4],IC50 [5]
"CCCNC1(C)CN(c2ncc(-c3n[nH]c4ccc(O[C@H](C)c5c(Cl)cncc5Cl)cc34)cc2F)C1 [Example 142, 1-[5-[5-[(1R)-1-(3,5-dichloro-4-pyridyl)ethoxy]-1H-indazol-3-yl]-3-fluoro-2-pyridyl]-3-methyl-N-propyl-azetidin-3-amine]",1 to 50 nM,1 to 50 nM,1 to 50 nM,1 to 50 nM,1 to 50 nM,50 to 200 nM,0.1 to 50 nM,50 to 200 nM,50 to 200 nM,0.1 to 50 nM
"C=CCNC1(C)CN(c2ncc(-c3n[nH]c4ccc(O[C@H](C)c5c(Cl)cncc5Cl)cc34)cc2F)C1 [Example 148, (R)-N-ally1-1-(5-(5-(1-(3,5-dichloropyridin-4-yl)ethoxy)-1H-indazol-3-yl)-3-fluoropyridin-2-yl)-3-methylazetidin-3-amine]",1 to 50 nM,1 to 50 nM,1 to 50 nM,1 to 50 nM,1 to 50 nM,50 to 200 nM,0.1 to 50 nM,50 to 200 nM,50 to 200 nM,0.1 to 50 nM
"C[C@@H](Oc1ccc2[nH]nc(-c3cnc(N4CC(C)(N5CCP(C)(=O)CC5)C4)c(F)c3)c2c1)c1c(Cl)cncc1Cl [Example 198, (R)-1-(1-(5-(5-(1-(3,5-dichloropyridin-4-yl)ethoxy)-1H-indazol-3-yl)-3-fluoropyridin-2-yl)-3-methylazetidin-3-yl)-4-methyl-1,4-azaphosphinane 4-oxide]",1 to 50 nM,1 to 50 nM,1 to 50 nM,1 to 50 nM,1 to 50 nM,0.1 to 50 nM,0.1 to 50 nM,200 to 1000 nM,0.1 to 50 nM,0.1 to 50 nM
